In brackets after ≈: the same amount, converted by molar mass.
Key:
Assay type in all cases: cell-based
E. coli = experiment: MIC values, E. coli (Tables 1-4)
H. flu = tested on: H. flu
E. faecalis = experiment: MIC values, E. faecalis (Tables 1-4)
S. pneumo. = experiment: MIC values, S. pneumo. (Tables 1-4)
S. aureus = experiment: MIC values, S. aureus (Tables 1-4)

SMILES	MIC E. coli (E. coli) [µg/mL]	MIC H. flu (H. flu) [µg/mL]	MIC E. faecalis (E. faecalis) [µg/mL]	MIC S. pneumo. (S. pneumo.) [µg/mL]	MIC S. aureus (S. aureus) [µg/mL]
CCOC(=O)NCC1CCN(c2cc(O)c3nc4c5c6c7c(C)c(O)c5c(=O)c(c-4oc3c2)NC(=O)/C(C)=C\C=C\[C@H](C)[C@H](O)[C@@H](C)[C@@H](O)[C@@H](C)[C@H](O)[C@H](C)[C@@H](OC)/C=C/O[C@@](C)(O7)C6=O)CC1 [Compound 60]	>8	0.06 (≈ 0.0636 µM)	0.5 (≈ 0.53 µM)	0.0005 (≈ 0.00053 µM)	0.008 (≈ 0.00848 µM)
CO[C@H]1/C=C/O[C@@]2(C)Oc3c(C)c(O)c4c(=O)c(c5oc6cc(N7CCC(CCO)CC7)cc(O)c6nc-5c4c3C2=O)NC(=O)/C(C)=C\C=C\[C@H](C)[C@H](O)[C@@H](C)[C@@H](O)[C@@H](C)[C@H](OC(C)=O)[C@@H]1C [Compound 61]	>8	0.25 (≈ 0.269 µM)	1 (≈ 1.08 µM)	0.00012 (≈ 0.000129 µM)	0.004 (≈ 0.00431 µM)
CO[C@H]1/C=C/O[C@@]2(C)Oc3c(C)c(O)c4c(=O)c(c5oc6cc(N7CCC(c8ccccc8)CC7)cc(O)c6nc-5c4c3C2=O)NC(=O)/C(C)=C\C=C\[C@H](C)[C@H](O)[C@@H](C)[C@@H](O)[C@@H](C)[C@H](O)[C@@H]1C [Compound 62]	>8	0.5 (≈ 0.545 µM)	8 (≈ 8.71 µM)	0.008 (≈ 0.00871 µM)	0.015 (≈ 0.0163 µM)
COCCOC(=O)NC1CCN(c2cc(O)c3nc4c5c6c7c(C)c(O)c5c(=O)c(c-4oc3c2)NC(=O)/C(C)=C\C=C\[C@H](C)[C@H](O)[C@@H](C)[C@@H](O)[C@@H](C)[C@H](O)[C@H](C)[C@@H](OC)/C=C/O[C@@](C)(O7)C6=O)CC1 [Compound 63]	8 (≈ 8.34 µM)	0.25 (≈ 0.261 µM)	1 (≈ 1.04 µM)	0.002 (≈ 0.00209 µM)	0.008 (≈ 0.00834 µM)
CO[C@H]1/C=C/O[C@@]2(C)Oc3c(C)c(O)c4c(=O)c(c5sc6cc(N7C[C@@H](C)N[C@@H](C)C7)ccc6nc-5c4c3C2=O)NC(=O)/C(C)=C\C=C\[C@H](C)[C@H](O)[C@@H](C)[C@@H](O)[C@@H](C)[C@H](OC(C)=O)[C@@H]1C [Compound 64]	4 (≈ 4.38 µM)	0.25 (≈ 0.274 µM)	0.12 (≈ 0.131 µM)	0.00012 (≈ 0.000131 µM)	0.004 (≈ 0.00438 µM)
CO[C@H]1/C=C/O[C@@]2(C)Oc3c(C)c(O)c4c(=O)c(c5sc6cc(N7C[C@@H](C)N[C@@H](C)C7)ccc6nc-5c4c3C2=O)NC(=O)/C(C)=C\C=C\[C@H](C)[C@H](O)[C@@H](C)[C@@H](O)[C@@H](C)[C@H](O)[C@@H]1C [Compound 65]	2 (≈ 2.3 µM)	0.12 (≈ 0.138 µM)	0.12 (≈ 0.138 µM)	0.00025 (≈ 0.000287 µM)	0.002 (≈ 0.0023 µM)
CO[C@H]1/C=C/O[C@@]2(C)Oc3c(C)c(O)c4c(=O)c(c5oc6cc(N7CCC(CCO)CC7)cc(O)c6nc-5c4c3C2=O)NC(=O)/C(C)=C\C=C\[C@H](C)[C@H](O)[C@@H](C)[C@@H](O)[C@@H](C)[C@H](O)[C@@H]1C [Compound 66]	4 (≈ 4.51 µM)	0.12 (≈ 0.135 µM)	0.12 (≈ 0.135 µM)	0.0005 (≈ 0.000564 µM)	0.004 (≈ 0.00451 µM)
CCCS(=O)(=O)NC1CCN(c2cc(O)c3nc4c5c6c7c(C)c(O)c5c(=O)c(c-4oc3c2)NC(=O)/C(C)=C\C=C\[C@H](C)[C@H](O)[C@@H](C)[C@@H](O)[C@@H](C)[C@H](O)[C@H](C)[C@@H](OC)/C=C/O[C@@](C)(O7)C6=O)CC1 [Compound 67]	>8	0.12 (≈ 0.125 µM)	0.5 (≈ 0.519 µM)	0.001 (≈ 0.00104 µM)	0.008 (≈ 0.00831 µM)
COC1C=COC2(C)Oc3c(C)c(O)c4c(=O)c(c5sc6cc(N7CC(C)N(CC8CC8)CC7C)ccc6nc-5c4c3C2=O)NC(=O)C(C)=CC=CC(C)C(O)C(C)C(O)C(C)C(OC(C)=O)C1C (stereo not drawn) [Compound 68]	>8	0.5 (≈ 0.517 µM)	2 (≈ 2.07 µM)	0.0005 (≈ 0.000517 µM)	0.06 (≈ 0.062 µM)

Source: patent US20070142392A1, “Uses of rifamycins” (ActivBiotics, Inc., priority 2005, published 2007)
